From US20160046656A1, “NOVEL PHYTOSPHINGOSINE-1-PHOSPHATE DERIVATIVE, PREPARATION METHOD THEREFOR, AND COMPOSITION FOR PREVENTING AND TREATING HAIR LOSS OR FOR GROWING HAIR COMPRISING SAME” (PHYTOS CO., LTD., priority 2013, published 2016)

Experiments:
C3H mice = experiment: Hair growth test using C3H mice; type: in vivo, mouse; settings: for effects on hair growth compared to positive control group: 0.01 weight % solution once a day vs 3% minoxidil preparation (Mynoxyl)
Experimental: A 6-week C3H mouse was purchased, and the hair on a dorsal part of the mouse was partially removed. Then, hair removal cream was applied to the dorsal part to completely remove the existing hair. A mouse of which the hair was not completely removed was excluded from the test. After finishing the hair removal, 5 mice were randomly bred per cage, and a total of 5 cages were used.
The mice were left one day or so after finishing depilation, and a test compound, which was prepared by dissolving O-C-P1P of Example 4 and N-C-P1P of Example 5 in a mixed solution of ethanol and ethoxydiglycol (9:1, v/v) to a concentration of 0.01 weight %, was applied once a day to the area from which the hair was removed. A negative control group was prepared by applying a mixed solution of ethanol and ethoxydiglycol without using the test compound, and a positive control group was 3% minoxidil preparation (Mynoxyl, Hyundai Pharm). After applying samples to the area from which the hair was removed, images of the area captured at the 14th and 18th days are shown in FIG. 3. […]

human fibroblasts = experiment: Cell proliferation by MTT assay; type: cell-based; settings: for Cell Viability (%): MTT, 0 = 100; for cell proliferation, result in words: summary of Table 4
Experimental: (§1) To measure anti-wrinkle effects of N-C-P1P and O-C-P1P, effects of human fibroblasts on cell proliferation were measured via an MTT (3-[4,5-dimethylthiazol-2-yl]-2,5-diphenyltetrazolium bromide) assay. To observe collagen synthesis, procollagent type I, which is produced in human fibroblasts (e.g., dermal cells), were measured.
To measure cell proliferation, human fibroblasts were cultured for 24 hours in a Dulbecco's modified eagle medium (DMEM) medium supplemented with 10% FBS and 100 unit/mL of penicillin/streptomycin. The culture circumstances comprising culturing in a 5% CO2 incubator maintained at a temperature of 37° c. Then, after removing the medium therefrom, N-C-P1P and O-C-P1P were added thereto at different concentrations. The MTT assay was performed to measure effects of N-C-P1P and O-C-P1P on cell proliferation, and the results are summarized in Table 4.

procollagen type I = experiment: Collagen synthesis, procollagen type I C-peptide EIA kit; type: cell-based; settings: human fibroblasts; for Collagen synthesis (%): 24 hours, serum free medium, 0 = 100; for synthesis of collagen, result in words: summary of Table 5
Experimental: as §1
To measure collagen synthesis, the human fibroblasts (e.g., dermal cells) were cultured in the same conditions as above for 24 hours. After removing the medium therefrom, a new serum free medium was substituted. […] The culture medium was used to measure amounts of synthesized collagen by using a procollagen type I C-peptide EIA kit, and the results measured therefrom are shown in Table 5 below.

[1] = 0.01 weight % in ethanol/ethoxydiglycol (9:1, v/v), applied once a day to depilated area, images at 14th and 18th days, FIG. 3

CCCCCCCCCCCCCC[C@@H](O)[C@@H](O)[C@@H]1COP(=O)(O)N1 [N-C-P1P, N-cyclic phytospingosine-1-phosphate]
effects on hair growth compared to negative control group (C3H mice; [1]): significantly better | effects on hair growth compared to positive control group (C3H mice; FIG. 3): quite less | Cell Viability (%) (human fibroblasts; concentration 0.002%): 120% | Cell Viability (%) (human fibroblasts; concentration 0.004%): 110% | Cell Viability (%) (human fibroblasts; concentration 0.008%): 110% | Cell Viability (%) (human fibroblasts; concentration 0.016%): 125% | cell proliferation, result in words (human fibroblasts): promoting cell proliferation | Collagen synthesis (%) (procollagen type I; concentration 0.1 μM): 110% | Collagen synthesis (%) (procollagen type I; concentration 1 μM): 125% | synthesis of collagen, result in words (procollagen type I): promoting synthesis of collagen

CCCCCCCCCCCCCC[C@@H](O)[C@H]1OP(=O)(O)OC[C@@H]1N [O-C-P1P, O-cyclic phytospingosine-1-phosphate]
effects on hair growth compared to negative control group (C3H mice; 0.005, 0.01 and 0.02 weight % solutions, images at 13th and 17th days, FIG. 5): significant effects on hair growth | difference in effects on hair growth among concentrations (C3H mice; 0.005 weight %, 0.01 weight % and 0.02 weight %, FIG. 5): no significant different | effects on hair growth compared to negative control group (C3H mice; [1]): rapid growth of hair | effects on hair growth compared to positive control group (C3H mice; FIG. 3): effects on faster hair growth were shown better | effects on hair growth compared to negative control group (C3H mice; liposomes containing O-C-P1P of Examples 6 and 7, once a day for 3 weeks, FIG. 4): significant effects on hair growth | concentration giving the same effects on hair growth, times as low as the concentration of minoxidil (C3H mice; vs 3% minoxidil preparation): about 300 times | Cell Viability (%) (human fibroblasts; concentration 0.002%): 128% | Cell Viability (%) (human fibroblasts; concentration 0.004%): 135% | Cell Viability (%) (human fibroblasts; concentration 0.008%): 143% | Cell Viability (%) (human fibroblasts; concentration 0.016%): 160% | cell proliferation, result in words (human fibroblasts): promoting cell proliferation | Collagen synthesis (%) (procollagen type I; concentration 0.1 μM): 120% | Collagen synthesis (%) (procollagen type I; concentration 1 μM): 140% | synthesis of collagen, result in words (procollagen type I): promoting synthesis of collagen
